# Experiments:
# [1] = tested on: U2OS (osteosarcoma) cells; assay: Soft agar assay (anchorage-independent growth), U2OS; format: cell-based, human
# Experimental: Soft agar assay and analysis was carried out as previously described. For scratch assay, confluent monolayer of U2OS and HT-1080 cells were subjected to scratch using a sterile pipette tip. Wounded monolayers were washed to remove debris and incubated with SEN461 at different concentrations for 20 hours. After the incubation period, images were taken under an Axiovert 200M (Zeiss) microscope equipped with a CCD camera, and the gap width was measured using MetaMorph 6.3 software (Universal Imaging Corp.) to calculate the area covered by cells (pixels unit). The tube formation assay was performed using growth factor-reduced Matrigel from BD (BD Biosciences; San Jose, CA, USA). Matrigel was thawed overnight at 4°C and was diluted (1∶1) with phenol red-free DMEM without serum. 100 µl of the diluted matrigel was used to coat the wells of a 96 well plate and was allowed to polymerize for 2 hours at 37°C. After equilibrating the gel with the complete growth medium, 15×10^3 cells were seeded in each well and incubated for 20 hours. The tube formation was monitored under a phase contrast microscope (Axiovert 200, Zeiss) and imaged using MetaMorph system (Universal Imaging Corp).
# [2] = tested on: Wnt transcriptional activity in HT-1080 cells; assay: TCF Wnt reporter assay in HT-1080; format: cell-based, human; settings: HT-1080, data not shown
# Text: The generation of TCF-Luciferase and TA-Renilla reporter plasmids as well as IC50 determination and calculation was reported previously. Human AXIN1 and WNT3A cDNAs were purchased from Origene as “transfection ready” plasmids. Dominant negative TCF4 cDNA was purchased from Upstate. Luciferase reporter of the nucleolin promoter (pNucL14) and FLAG-c-Myc expressing vector were from B. Amati. Luciferase reporter of the Hes5 promoter and Notch1-IC expressing vector were from I. Screpanti. Lentiviral vectors for inducible dominant negative TCF4 (rLV-EF1-tTS, rLV-EF1-rtTA and rLV-TRE-CMV-HA-TCF4DN) were purchased from Vectalys.
# Transfections were carried out using Lipofectamine 2000 (Invitrogen) according to the manufacturer’s instructions. Lentiviral expression of TCF-Luc, TA-Renilla, and the inducible dominant negative TCF4, were carried out following Vectalys instructions. For reporter assays, luciferase activities were performed as described previously.
# [3] = tested on: Axin1/P-β-catenin co-localization in U2OS cells; assay: Axin1-GFP / P-β-catenin co-localization (confocal) in U2OS; format: cell-based, human; settings: Wnt3a-CM, 10 µmol/L overnight
# [4] = tested on: Wnt target gene mRNA in U2OS cells; assay: Quantitative RT-PCR of Wnt target genes in U2OS; format: cell-based, human
# Experimental: RNA extraction and quantitative RT-PCR (qPCR) expression analysis was performed as described previously. Gene expression analysis was performed using the human housekeeping gene RPL13A. Primers for the hAXIN2, hCDC25A, hc-MYC, hFZD4, hDVL2, hCSNK1G and hVEGF-A were the following: Fw: 5′-CAAGGGCCAGGTCACCAA-3′ Rv: 5′-CCCCCAACCCATCTTCGT-3′; Fw: 5′-[…]-3′ Rv: 5′-[…]-3′; Fw: 5′-GGCTCCTGGCAAAAGGTCA-3′ Rv: 5′-[…]-3′; Fw: 5′-[…]-3′ Rv: 5′-[…]-3′; Fw: 5′-[…]-3′ Rv: 5′-GTCTCCCCGCTCATTGCTC-3′; Fw: 5′-[…]-3′ Rv: 5′-[…]-3′; Fw: 5′-[…]-3′ Rv: 5′-[…]-3′.
# [5] = tested on: Axin1, TNKS1/2, c-Myc protein in U2OS cells
# Experimental: Total, nuclear and cytosolic cells lysates were prepared as described previously. Commercial antibodies used in this study include anti-Axin1, anti-β-catenin, anti-P-β−catenin Ser33/Ser37/Thr41 and anti-HA from Cell Signaling Technologies, anti-p21 (Santa Cruz), anti-tankyrases (Abcam), anti-Tubulin and anti-c-Myc from Calbiochem, anti-GAPDH and anti-β-actin (Sigma). For co-localization experiments, U2OS cells were plated directly on coverslips coated with Fibronectin (Invitrogen). After transfections and incubation treatment of 24 h, cells were washed once with 1X PBS and then fixed with 4% paraformaldehyde for 15 min. After three washes in PBS, cells were permeabilized with 0.1% Triton X-100 for 10 min and washed three times with TBS (Bio-Rad). […] After 24 h, cells were washed three times with TBS and incubated for 1 h with the following secondary antibody Alexa Fluor 546-conjugated goat anti-rabbit IgG (Invitrogen, 1∶1000). Finally, coverslips were mounted onto glass slides using Prolong Gold Antifade reagent with DAPI (Invitrogen). Cells were examined under laser confocal fluorescence microscope with plan-apochromate 40x and 63x/1.4 oil-immersion objective (LSM 510 Meta, Axiovert 200, Zeiss). Co-localization experiments were performed in triplicate, and data/images presented are the average of at least 10 random fields for each independent experiment.
# [6] = tested on: Axin1 and β-catenin in G292 osteosarcoma cells; assay: Western blotting in G292; format: cell-based, human
smiles,measurement,setting,value
COCC(=O)N1CCN(C(=O)C2CCC(Cn3c(=O)c4cc(OC)ccc4n(C)c3=O)CC2)CC1 (stereo not drawn) [SEN461],IC50,[1],300 nM
same,Wnt transcriptional modulation (TCF reporter),[2],did not find any Wnt transcriptional modulation
same,phosphorylated β-catenin associated with Axin1 (co-localization),[3],increase in the amount of phosphorylated β-catenin associated with Axin1
same,CSNK1G mRNA,[4]; 10 µmol/L,down-modulation
same,DVL2 mRNA,[4]; 10 µmol/L,down-modulation
same,FZD4 mRNA,[4]; 10 µmol/L,down-modulation
same,AXIN2 mRNA,"[4]; 10 µmol/L, 2 or 24 h",comparable down-regulation
same,CDC25A mRNA,"[4]; 10 µmol/L, 2 or 24 h",comparable down-regulation
same,AXIN2 mRNA induced by Wnt3a CM,[4]; Wnt3a CM stimulation,inhibited
same,c-MYC mRNA,[4]; overnight treatment,unaffected
same,tankyrases (TNKS1 and TNKS2) protein level,[5]; only at the highest concentration,very slight stabilization
same,c-Myc protein level,[5]; overnight,No effect
same,Axin1 protein level,"[5]; overnight, cytoplasmic lysates",concentration-dependent stabilization
same,Axin protein level,[6],Axin stabilization
same,β-catenin level,[6],β-catenin down-modulation

# From PMC4026528 (PLoS ONE, 2014)
